# Where “and” joins values, the source holds several entries; their conditions need not be identical. Identical values can stand only once.
# Columns and labels:
# FlaA1 [1] = biological target: T1, FlaA1 (Helicobacter pylori, UniProt O25511); experiment: Substrate specificity of FlaA1 (catalysis with related sugar-nucleotides); type: biochemical
# T1 construct: hexahistidine tag (N); made in house; host or cells: E. coli BL21(DE3)pLysS (pET23 derivative)
# FlaA1 [2] = biological target: T1, FlaA1; experiment: Capillary electrophoresis analysis of reaction products and kinetic parameters of FlaA1; type: biochemical; settings: for reaction products identified by capillary electrophoresis: sugar-nucleotide used as substrate of FlaA1
# Description: The same reactions as above were prepared for capillary analysis using varying amounts of enzyme (440 or 54 ng) and 1 mM NAD^+ or not. The reaction mix was incubated for different reaction times. The specific conditions are indicated above. After incubation at 37° C. for the required amount of time, the reactions were quenched by boiling the sample for 6 min. Time course studies were performed with final sugar-nucleotide concentrations of 0.1 and 1.5 mM without NAD^+. Samples were quenched every 15 minutes for 2 h. […] Reactions were also performed using varying buffers such as 20 mM sodium phosphate or bis-tris-propane at pH 7, or 20 mM sodium acetate pH 6.5 and processed for CE analysis as described above.
# Capillary electrophoresis (CE) analysis were performed using a P/ACE 5000 system (Beckman, Fullerton, Calif.) with UV detection as described before (Creuzenet et al. 2000). Briefly summarised, the running buffer was 25 mM sodium tetraborate pH 9.4. The capillary was bare silica 75 μm×57 cm, with a detector at 50 cm. The capillary was conditioned before each run by washing with 0.2 M NaOH for 2 min, water for 2 min, and running buffer for 2 min. Samples were introduced by pressure injection for 4 s and the separation was performed at 22 kV. Peak integration was done using the Beckman P/ACE Station software. Kinetic parameters were calculated by linear regression from Eadie-Hofstee plots.
# The same reactions as above were prepared for capillary electrophoresis analysis and were quenched by boiling for 6 minutes without prior acidification. Capillary electrophoresis (CE) analysis was performed as described earlier (Creuzenet et al. 2000).
# FlaA1 [3] = biological target: T1, FlaA1; experiment: DMAB assay: enzymatic conversion of UDP-GlcNAc and UDP-GalNAc by FlaA1; type: biochemical; settings: incubation with FlaA1, 37° C., 20 mM Tris pH 7, 1 mM NAD+
# Description: Reactions were performed with a total reaction volume of 35 μl at 37° C. in 20 mM Tris pH 7 in the presence of 1.5 mM substrate and 1 mM NAD^+. The reactions were stopped by acid hydrolysis of the UDP moiety of the substrate. For this purpose, the samples were acidified to pH 2 by addition of 7 μl of HCl 1 N, boiled for 6 min, and neutralised by addition of 7 μl of NaOH 1 N. The spectrophotometric quantification of GalNAc and GlcNAc using DMAB was performed as described by Creuzenet et al. 2000. Briefly summarized, 100 μl of 0.2 M sodium tetraborate pH 9.1 were added to 50 μl of quenched and neutralised enzymatic reactions and boiled immediately for 3 min. 40 μl of this mixture were transferred to a microtitration plate and 200 μl of DMAB reagent (1% in glacial acetic acid/HCl 99/1 v/v) were added. After incubation for 30 min at 37° C., the OD595 nm was recorded using a microplate reader. The assay was done in duplicate for each reaction tested. Standard curves were prepared using UDP-GlcNAc and UDP-GalNAc that were subjected to acid hydrolysis in the same conditions as described above.
# C4 epimerase WbpP = C4 epimerase WbpP (Pseudomonas aeruginosa, UniProt Q8KN66); settings: Creuzenet et al. 2000; cited from earlier work
# Chain of C4 epimerase WbpP (Q8KN66 whole entry): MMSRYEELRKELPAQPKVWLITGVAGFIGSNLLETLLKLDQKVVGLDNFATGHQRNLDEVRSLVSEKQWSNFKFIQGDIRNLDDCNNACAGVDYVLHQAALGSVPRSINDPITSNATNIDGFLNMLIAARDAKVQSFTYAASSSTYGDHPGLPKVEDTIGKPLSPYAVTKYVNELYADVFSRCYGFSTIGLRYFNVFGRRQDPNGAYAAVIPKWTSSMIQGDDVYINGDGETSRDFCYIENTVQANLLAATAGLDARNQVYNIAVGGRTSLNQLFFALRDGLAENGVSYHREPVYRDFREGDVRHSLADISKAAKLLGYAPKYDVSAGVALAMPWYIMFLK
# T1 sequence (O25511 whole entry): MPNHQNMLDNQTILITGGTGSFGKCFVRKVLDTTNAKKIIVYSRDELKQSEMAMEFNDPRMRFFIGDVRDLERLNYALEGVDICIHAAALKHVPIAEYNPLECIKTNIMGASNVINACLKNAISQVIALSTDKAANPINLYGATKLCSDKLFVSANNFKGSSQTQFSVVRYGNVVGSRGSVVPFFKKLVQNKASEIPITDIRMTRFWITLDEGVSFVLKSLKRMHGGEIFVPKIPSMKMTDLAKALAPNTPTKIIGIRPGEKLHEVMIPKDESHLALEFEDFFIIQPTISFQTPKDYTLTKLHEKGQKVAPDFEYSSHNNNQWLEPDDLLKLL
SMILES,catalysis by FlaA1 (substrate specificity) (FlaA1 [1]),reaction products identified by capillary electrophoresis (FlaA1 [2]),"substrate conversion (decrease in OD595nm, DMAB assay) (FlaA1 [3]) [%]","kcat (FlaA1 [2]; pH 7, 37° C., 12.8 pmol enzyme)","Km (FlaA1 [2]; pH 7, 37° C., 440 ng fresh enzyme, no NAD+, 20 min) [µM]","Vmax (FlaA1 [2]; pH 7, 37° C., 440 ng fresh enzyme, no NAD+, 20 min, total substrate conversion)",Km (C4 epimerase WbpP) [µM]
Nc1nc2c(ncn2[C@@H]2O[C@H](COP(=O)(O)OP(=O)(O)O[C@H]3O[C@H](CO)[C@@H](O)[C@H](O)[C@@H]3O)[C@@H](O)[C@H]2O)c(=O)[nH]1 [GDP-mannose],Absence of catalysis,,,,,,
"CC(=O)N[C@H]1[C@@H](OP(=O)(O)OP(=O)(O)OC[C@H]2O[C@@H](n3ccc(=O)[nH]c3=O)[C@H](O)[C@@H]2O)O[C@H](CO)[C@H](O)[C@@H]1O [UDP-GalNAc, UDP-N-acetylgalactosamine]",can not proceed to catalysis,no reaction products could be identified,< 5,,,,
"CC(=O)N[C@H]1[C@@H](OP(=O)(O)OP(=O)(O)OC[C@H]2O[C@@H](n3ccc(=O)[nH]c3=O)[C@H](O)[C@@H]2O)O[C@H](CO)[C@@H](O)[C@@H]1O [UDP-GlcNAc, UDP-N-acetylglucosamine]",,two reaction products were identified,≤ 55,0.085 s⁻¹ and 0.085 ± 0.0067 s⁻¹,159,0.065 nmol/min and 0.065 ± 0.006 nmol/min,220
Cc1cn([C@H]2C[C@H](O)[C@@H](COP(=O)(O)OP(=O)(O)OC3O[C@H](CO)[C@@H](O)[C@H](O)[C@H]3O)O2)c(=O)[nH]c1=O (stereo partly drawn) [dTDP-D-glucose],Absence of catalysis,,,,,,

# Reference: patent US6689567B1, “Method for assaying the function of FlaA1 and WbpM” (priority 1999, dated 2004)
